Positions of bridges follow the written chain, without caps; N, C: chain ends. Residues, ends and D or L forms follow the SMILES beside them.
The compounds below were run against T1, rat α6/α3β2β3 nAChRs (Rattus norvegicus, UniProt P04757+P12390+P43143).
T1 construct: remaining part of the rat nAChR α3 subunit (Chrna3, UniProt P04757 by own knowledge), fused after the α6 extracellular portion; expressed in transfected cells; host or cells: Xenopus oocytes injected with in vitro transcribed cRNA
Assay type: cell-based

T1 sequence (P04757 whole entry, looked up, the tested form may be a part): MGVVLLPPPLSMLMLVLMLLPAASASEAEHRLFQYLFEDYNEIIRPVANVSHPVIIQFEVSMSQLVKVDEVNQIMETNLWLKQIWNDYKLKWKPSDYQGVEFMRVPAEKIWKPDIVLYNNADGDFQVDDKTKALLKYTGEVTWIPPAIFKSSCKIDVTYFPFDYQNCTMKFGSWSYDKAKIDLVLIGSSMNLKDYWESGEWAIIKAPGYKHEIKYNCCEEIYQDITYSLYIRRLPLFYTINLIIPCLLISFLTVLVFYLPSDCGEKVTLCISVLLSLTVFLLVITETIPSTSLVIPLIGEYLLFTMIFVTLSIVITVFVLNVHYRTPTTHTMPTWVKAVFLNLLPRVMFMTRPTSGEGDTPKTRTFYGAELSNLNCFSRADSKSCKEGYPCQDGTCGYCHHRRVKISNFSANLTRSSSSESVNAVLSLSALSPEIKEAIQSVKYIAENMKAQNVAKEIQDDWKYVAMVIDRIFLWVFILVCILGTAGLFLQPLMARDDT
T1 sequence (P12390 whole entry, looked up, the tested form may be a part): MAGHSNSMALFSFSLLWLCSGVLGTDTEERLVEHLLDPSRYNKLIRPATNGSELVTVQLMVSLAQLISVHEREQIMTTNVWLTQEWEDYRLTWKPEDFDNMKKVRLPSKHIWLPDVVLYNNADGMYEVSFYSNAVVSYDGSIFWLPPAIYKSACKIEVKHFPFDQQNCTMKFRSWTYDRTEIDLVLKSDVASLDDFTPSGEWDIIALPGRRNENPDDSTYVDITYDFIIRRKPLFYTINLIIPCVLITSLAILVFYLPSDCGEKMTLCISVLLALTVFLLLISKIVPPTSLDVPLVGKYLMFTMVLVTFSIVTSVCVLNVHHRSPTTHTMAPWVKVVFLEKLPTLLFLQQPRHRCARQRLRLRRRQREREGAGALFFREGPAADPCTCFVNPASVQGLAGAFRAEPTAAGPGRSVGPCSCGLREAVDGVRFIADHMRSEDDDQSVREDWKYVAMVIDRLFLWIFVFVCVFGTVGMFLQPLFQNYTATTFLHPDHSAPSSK
T1 sequence (P43143 whole entry, looked up, the tested form may be a part): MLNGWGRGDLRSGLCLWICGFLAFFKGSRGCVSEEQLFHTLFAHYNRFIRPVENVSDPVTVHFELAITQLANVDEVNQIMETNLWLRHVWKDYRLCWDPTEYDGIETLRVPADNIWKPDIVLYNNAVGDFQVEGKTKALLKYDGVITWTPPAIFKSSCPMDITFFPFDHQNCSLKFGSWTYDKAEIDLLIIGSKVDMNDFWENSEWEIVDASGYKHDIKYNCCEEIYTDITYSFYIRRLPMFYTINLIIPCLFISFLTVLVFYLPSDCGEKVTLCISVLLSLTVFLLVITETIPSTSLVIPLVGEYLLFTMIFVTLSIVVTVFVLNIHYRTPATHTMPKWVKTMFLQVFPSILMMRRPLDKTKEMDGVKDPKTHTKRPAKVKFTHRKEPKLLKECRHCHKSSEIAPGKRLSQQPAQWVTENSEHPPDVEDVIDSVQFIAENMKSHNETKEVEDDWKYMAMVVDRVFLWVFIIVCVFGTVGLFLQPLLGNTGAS

SMILES	inhibition of α6β2* nAChRs
CC(C)C[C@@H]1NC(=O)[C@H](CC(=O)O)NC(=O)[C@@H]2CCCN2C(=O)[C@H](Cc2c[nH]cn2)NC(=O)[C@H](CCCCN)NC(=O)[C@H](CC(N)=O)NC(=O)[C@H](CCCNC(=N)N)NC(=O)[C@@H]2CSSC[C@H](NC(=O)CN)C(=O)N[C@@H](CSSC[C@@H](C(N)=O)NC1=O)C(=O)N[C@@H](CO)C(=O)N[C@@H](CC(=O)O)C(=O)N1CCC[C@H]1C(=O)N1CCC[C@H]1C(=O)N2 [TxIB, α-Conotoxin TxIB, reference compound] (H-GCCSDPPCRNKHPDLC-NH2; disulfide 2-8, 3-16)	42%
CC(C)C[C@@H]1NC(=O)[C@H](CC(=O)O)NC(=O)[C@@H]2CCCN2C(=O)[C@H](Cc2c[nH]cn2)NC(=O)[C@H](CCCCN)NC(=O)[C@H](CC(N)=O)NC(=O)[C@H](CCCNC(=N)N)NC(=O)[C@@H]2CSSC[C@@H]3NC(=O)CNC(=O)CNC(=O)[C@H](C)NC(=O)[C@H](C)NC(=O)CNC(=O)[C@H](CSSC[C@H](NC3=O)C(=O)N[C@@H](CO)C(=O)N[C@@H](CC(=O)O)C(=O)N3CCC[C@H]3C(=O)N3CCC[C@H]3C(=O)N2)NC1=O [cTxIB-4] (cyclo(AAGGCCSDPPCRNKHPDLCG); disulfide 5-11, 6-19)	about 35%
CC(C)C[C@@H]1NC(=O)[C@H](CC(=O)O)NC(=O)[C@@H]2CCCN2C(=O)[C@H](Cc2c[nH]cn2)NC(=O)[C@H](CCCCN)NC(=O)[C@H](CC(N)=O)NC(=O)[C@H](CCCNC(=N)N)NC(=O)[C@@H]2CSSC[C@@H]3NC(=O)CNC(=O)CNC(=O)[C@H](C)NC(=O)[C@H](C)NC(=O)CNC(=O)CNC(=O)[C@H](CSSC[C@H](NC3=O)C(=O)N[C@@H](CO)C(=O)N[C@@H](CC(=O)O)C(=O)N3CCC[C@H]3C(=O)N3CCC[C@H]3C(=O)N2)NC1=O [cTxIB-5] (cyclo(AAGGCCSDPPCRNKHPDLCGG); disulfide 5-11, 6-19)	~42%
CC(C)C[C@@H]1NC(=O)[C@H](CC(=O)O)NC(=O)[C@@H]2CCCN2C(=O)[C@H](Cc2c[nH]cn2)NC(=O)[C@H](CCCCN)NC(=O)[C@H](CC(N)=O)NC(=O)[C@H](CCCNC(=N)N)NC(=O)[C@@H]2CSSC[C@@H]3NC(=O)CNC(=O)CNC(=O)[C@H](C)NC(=O)[C@H](C)NC(=O)CNC(=O)[C@H](C)NC(=O)CNC(=O)[C@H](CSSC[C@H](NC3=O)C(=O)N[C@@H](CO)C(=O)N[C@@H](CC(=O)O)C(=O)N3CCC[C@H]3C(=O)N3CCC[C@H]3C(=O)N2)NC1=O [cTxIB-6] (cyclo(AAGGCCSDPPCRNKHPDLCGAG); disulfide 5-11, 6-19)	~48%
CC(C)C[C@@H]1NC(=O)[C@H](CC(=O)O)NC(=O)[C@@H]2CCCN2C(=O)[C@H](Cc2c[nH]cn2)NC(=O)[C@H](CCCCN)NC(=O)[C@H](CC(N)=O)NC(=O)[C@H](CCCNC(=N)N)NC(=O)[C@@H]2CSSC[C@@H]3NC(=O)CNC(=O)CNC(=O)[C@H](C)NC(=O)CNC(=O)[C@H](C)NC(=O)[C@H](C)NC(=O)CNC(=O)CNC(=O)[C@H](CSSC[C@H](NC3=O)C(=O)N[C@@H](CO)C(=O)N[C@@H](CC(=O)O)C(=O)N3CCC[C@H]3C(=O)N3CCC[C@H]3C(=O)N2)NC1=O [cTxIB-7] (cyclo(AAGAGGCCSDPPCRNKHPDLCGG); disulfide 7-13, 8-21)	~41%

Source: publication PMC7230940 (Marine Drugs, 2020)
